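Following 48 hours of exposure in 96-well plates, responses at five concentrations were used to interpolate endpoints linearly. The concentration for 50% growth inhibition is given as GI50. TGI is the concentration that stops growth completely.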
Columns and labels:
Test in all cases: growth of human tumour cells (NCI), 48 h
SNB-19 CNS = system: SNB-19 CNS
NCI-H23 lung = system: NCI-H23 lung
OVCAR-5 ovarian = system: OVCAR-5 ovarian
OVCAR-8 ovarian = system: OVCAR-8 ovarian
SF-268 CNS = system: SF-268 CNS
RPMI-8226 leukemia = system: RPMI-8226 leukemia
OVCAR-3 ovarian = system: OVCAR-3 ovarian
HCC-2998 colon = system: HCC-2998 colon
NCI-H522 lung = system: NCI-H522 lung
HL-60(TB) leukemia = system: HL-60(TB) leukemia

Row | SMILES | GI50 (SNB-19 CNS) [µM] | TGI (SNB-19 CNS) [µM] | GI50 (NCI-H23 lung) [µM] | TGI (NCI-H23 lung) [µM] | GI50 (OVCAR-5 ovarian) [µM] | TGI (OVCAR-5 ovarian) [µM] | GI50 (OVCAR-8 ovarian) [µM] | GI50 (SF-268 CNS) [µM] | TGI (SF-268 CNS) [µM] | GI50 (RPMI-8226 leukemia) [µM] | TGI (RPMI-8226 leukemia) [µM] | GI50 (OVCAR-3 ovarian) [µM] | TGI (OVCAR-3 ovarian) [µM] | GI50 (HCC-2998 colon) [µM] | TGI (HCC-2998 colon) [µM] | GI50 (NCI-H522 lung) [µM] | TGI (NCI-H522 lung) [µM] | TGI (OVCAR-8 ovarian) [µM] | TGI (HL-60(TB) leukemia) [µM] | GI50 (HL-60(TB) leukemia) [µM]
1 | Cc1cc(Cl)ccc1Nc1nc(C(F)(F)F)ccc1C(=O)N/N=C/c1ccc([N+](=O)[O-])cc1 | 3.61 | > 100 | 1.65 | > 22 | 2.99 | > 100 | 1.15 | 0.86 | 5.45 | 0.435 | 1.77 | 0.777 | 2.63 | 1.43 | 4.28 | 1.55 | > 20.5 | – | – | –
2 | OC1(c2ccccc2)OC(C#Cc2ccccc2)(c2ccccc2)c2ccccc21 (stereo not drawn) | – | 26.3 | – | 11.3 | – | 16.8 | – | – | 15.2 | – | 6.62 | – | 5.93 | – | – | – | 20.3 | 5.87 | > 100 | –
3 | O=C(c1ccncc1)n1nc(-c2ccccc2)c(N=Nc2ccccc2[N+](=O)[O-])c1-c1ccccc1 | – | > 100 | – | > 100 | – | – | – | – | > 100 | – | > 100 | – | > 100 | – | > 100 | – | > 100 | > 100 | > 100 | –
4 | Cc1cc2c(cc1C)N(C(=O)CCl)CCN2C(=O)CCl | 1.81 | 4.1 | 1.76 | 3.8 | 1.5 | 3.08 | 0.644 | 1.82 | 3.89 | 0.571 | 2.7 | 1.11 | 2.46 | 1.78 | 3.3 | 0.178 | 0.348 | 6.13 | – | –
5 | COC1OC(CO)C(O)C1N (stereo not drawn) | – | > 100 | – | > 100 | – | > 100 | – | – | > 100 | – | – | – | > 100 | – | – | – | > 100 | > 100 | > 100 | –
6 | O=C1NC(=S)S/C1=C(/C=C(\CC(=O)c1ccccc1)c1ccc(Cl)cc1)c1ccccc1 | 95.1 | > 100 | 21.8 | 48.8 | 65.4 | > 100 | 26.5 | 27.1 | 96 | – | – | 24.2 | > 100 | 18.2 | 47.4 | 17.9 | 44.9 | > 100 | 55.2 | 21.7
7 | CN(C)CC1CCC/C1=N\O (stereo not drawn) | – | – | – | > 100 | – | > 100 | – | – | > 100 | – | > 100 | – | > 100 | – | > 100 | – | > 100 | > 100 | – | –
8 | C/C(CCc1ccccc1)=N\NC(N)=S | – | – | – | > 100 | – | > 100 | – | – | > 100 | – | > 100 | – | > 100 | – | > 100 | – | – | > 100 | > 100 | –
9 | Cc1ccccc1C1=C(C(=O)Nc2ccc(Cl)c(Cl)c2)NC(=S)NC1N (stereo not drawn) | – | > 100 | – | > 100 | – | > 100 | – | – | > 100 | – | > 100 | – | > 100 | – | – | – | > 100 | > 100 | – | –
10 | O=C(O)c1ccc2c(c1)CCCC(c1ccc(Cl)cc1Cl)=C2c1ccc(O[C@H]2CCN(CCCF)C2)cc1 | 12 | 26.4 | 13.2 | 29.3 | 17.4 | 32.1 | 13.5 | 12.1 | 28.5 | 6.99 | 27.5 | 12.1 | 24.7 | 13.6 | 27.9 | – | – | 33.7 | 22.7 | 7.41
11 | Cc1c(C(=O)NCCN2CCOCC2)cn2ncnc(Oc3ccc(NC(=O)Nc4ccc(Cl)c(C(F)(F)F)c4)cc3)c12 | – | – | – | – | – | – | 3.1 | – | – | 0.545 | 3.01 | – | – | 2.04 | 3.71 | 1.76 | 4.23 | > 100 | 1.7 | 0.417
12 | COC(=O)c1ccccc1NC(=O)C(=O)NNC(=O)c1ccncc1 | – | > 100 | – | > 100 | – | – | – | – | – | – | – | – | > 100 | – | > 100 | – | > 100 | > 100 | > 100 | –
13 | CCOC(=O)/C=C1\CCCC12OCCO2 | – | > 100 | – | – | – | – | – | – | > 100 | – | > 100 | – | > 100 | – | > 100 | – | 7.38 | > 100 | > 100 | –
14 | COC(=O)[C@]12CCC(C)[C@H](C)[C@H]1C1=CCC3[C@@]4(C)CC[C@H](OC(C)=O)C(C)(C)C4CC[C@@]3(C)C1(C)C(O)C2 (stereo partly drawn) | – | > 100 | – | > 100 | – | > 100 | – | – | > 100 | – | > 100 | – | > 100 | – | > 100 | – | > 100 | > 100 | – | –
15 | CN(C)CCCNC(=O)c1ccc2c(c1)oc1cc3ccccc3c(=O)n12 | > 50 | > 50 | 35.4 | > 50 | – | – | 10.1 | 16.1 | 40 | 17.1 | > 50 | 9.24 | 23.9 | – | – | 9.33 | 21.8 | 24.9 | 30.8 | 11
16 | O=[N+]([O-])c1cnn(C2=CNc3ccccc3N=C2)c1 | – | > 100 | – | > 100 | – | > 100 | – | – | > 100 | – | – | – | > 100 | – | > 100 | – | – | > 100 | > 100 | –
17 | CCCCN(CCCC)c1c([N+](=O)[O-])c(=O)nc2ccccn12 | – | > 100 | – | > 100 | – | > 100 | – | – | > 100 | – | > 100 | – | > 100 | – | – | – | 36.4 | 94.6 | – | –
18 | Cc1ccc(-c2cc(-c3ccco3)c(C#N)c(=O)n2C2OC(OC(=O)c3ccccc3)C(OC(=O)c3ccccc3)C2OC(=O)c2ccccc2)cc1 (stereo not drawn) | – | – | – | – | – | > 100 | – | – | > 100 | – | > 100 | – | > 100 | – | > 100 | – | > 100 | > 100 | – | –
19 | O=C(O)C1CCCCC1C(=O)O.[NH-]C1CCC1.[NH2-].[Pt+2] (stereo not drawn) | > 100 | > 100 | 22.4 | > 100 | 18.3 | 34 | > 100 | > 100 | > 100 | – | – | 15.8 | 30.4 | – | – | 7.21 | > 100 | > 100 | 52.8 | 5.98
20 | CC(=O)NC(CCCCNC(=O)NCCCl)C(=O)NCc1ccccc1 (stereo not drawn) | – | > 100 | – | > 100 | – | – | – | – | > 100 | – | > 100 | – | > 100 | – | > 100 | – | > 100 | > 100 | > 100 | –
21 | Cc1cc(S(=O)(=O)NC#N)c(S/C(=N\Nc2ccc([N+](=O)[O-])cc2)c2ccc(Cl)cc2)cc1Cl | 25.2 | > 100 | 77.9 | > 100 | 44 | > 100 | 31.7 | 26 | > 100 | 30.5 | > 100 | 21.2 | > 100 | – | – | 21.8 | 89.5 | > 100 | > 100 | 36.2
22 | NCCCCNc1ccc2c(=O)[nH][nH]c(=O)c2c1 | – | > 100 | – | > 100 | – | > 100 | – | – | > 100 | – | – | – | > 100 | – | > 100 | – | > 100 | > 100 | > 100 | –
23 | COC1C2C=CC(C2)[C@H]1[N+](=O)[O-] (stereo partly drawn) | – | > 100 | – | > 100 | – | > 100 | – | – | > 100 | – | – | – | > 100 | – | > 100 | – | > 100 | > 100 | > 100 | –
24 | O=C1C(c2ccccc2)=[N+]([O-])c2ccccc21 | – | 37.5 | – | 36.6 | – | 43.1 | – | – | 27.4 | – | 56.9 | – | 29.1 | – | 38.8 | – | – | 32.6 | 42.2 | –
25 | CC(=O)OCC(OC(C)=O)C(OC(C)=O)C(OC(C)=O)C(=O)CNn1c(-c2ccccc2Cl)nc2ccccc2c1=O (stereo not drawn) | – | > 100 | – | > 100 | – | > 100 | – | – | > 100 | – | > 100 | – | > 100 | – | – | – | > 100 | > 100 | > 100 | –
26 | COc1ccc(/C=C\c2cc(OC)c(O[Si](C)(C)C(C)(C)C)c(OC)c2)cc1 | – | > 100 | – | > 100 | – | > 100 | – | – | > 100 | – | 83.3 | – | > 100 | – | > 100 | – | > 100 | > 100 | – | –
27 | Nc1ccccc1C#C/C=C\C#Cc1ccccc1 | 29.7 | > 100 | 14.8 | 35.9 | 15.5 | 51.6 | 48 | 5.93 | 28 | 1.26 | 10.7 | 4.14 | 14.8 | – | – | 4.72 | 20.5 | > 100 | > 100 | 13.7
28 | CCOC(=O)c1s/c(=N\Nc2nc3ccccc3cc2C2OCCO2)n(Cc2ccccc2)c1C | – | > 100 | – | > 100 | – | > 100 | – | – | > 100 | – | > 100 | – | > 100 | – | – | – | > 100 | > 100 | > 100 | –
29 | Cc1cc(C)c(C(=O)c2no[n+]([O-])c2C(=O)c2c(C)cc(C)c(Br)c2C)c(C)c1Br | – | 29.1 | – | 24.3 | – | 33 | – | – | 29.8 | – | 38.9 | – | 29.5 | – | – | – | 23.4 | 27.1 | 15.2 | –
